Assays:
Format in all cases: in vivo, mouse
[1] = tested on: GluA2 mRNA / (GluA1+GluA3+GluA4 mRNA); experiment: qRT-PCR of AMPAR/NMDAR subunits in hippocampal regions, Ca2+ permeability index
Description: Hippocampal slices of 17 to 18 week old male C57BL/6J background mice (CD, HFD, and HFD with PER treatment) or 12 to 13 week old ob/ob mice (ob/ob, and ob/ob with PER treatment) were prepared as previously reported (56, 57). After preparing and collecting hippocampal slices, CA1, CA2, CA3, DG, and EC regions were separated from hippocampal slices using a dissection knife from […] background mice and ob/ob mice, respectively. The CA1, CA2, CA3, DG, and EC regions of mice were separated and immediately lysed in disposable homogenization tube BioMasher2 (trademark) (Nippi, Tokyo, Japan) using 0.5 mL of TRIzol RNA isolation reagent (Thermo Fisher Scientific, Wilmington, DE). Total RNA was individually extracted from each region according to the remaining protocol of the TRIzol RNA isolation reagent provided by the manufacturer (Thermo Fisher Scientific, Wilmington, DE). 1 μg of total RNA was reverse transcribed using PrimeScript RT Reagent Kit (Takara, Shiga, Japan). An aliquot of the obtained CDNA was diluted 1:10 and added to a master mix of TB Green Premix ExTaq (Takara, Shiga, Japan), and real-time PCR was performed using a 7500 Fast Real-Time PCR system (Applied Biosystems, Foster City, CA, USA) according to the manufacturer's instructions. The conditions for real-time PCR were as follows. 40 cycles of 95° C. for 30 seconds, then 95° C. for 5 seconds and 60° C. for 34 seconds. The fluorescence intensity was measured for each annealing step and the threshold cycle time was determined using 7500 software. In addition, relative expression levels of β-actin were normalized to respective controls (vehicle group). The relative expression level of the target gene in each sample was determined using a standard curve and further normalized to the expression level of β-actin of the same sample. The sequences of primers and probes for these genes are shown in Supplemental Table 2. The “ratio of GluA2 mRNA amount/(GluA1+GluA3+GluA4 mRNA amount” was used as a Ca^2+ permeability index.
GluA2 is edited at the Q/R site within the reentry M2 membrane loop region by adenosine deaminase (ADAR2), which acts on RNA type 2 involved in editing double-stranded RNA from adenosine (A) to inosine (I) (review, refer to 15, 16 and 17). Attempts were made to determine real-time quantitative reverse transcription polymerase chain reaction (qRT-PCR), subunit composition of AMPAR and NMDAR. Total RNA in hippocampal subregions (CA1, CA3, DG, EC) was separated, and quantitative analysis of mRNA of GluA1, GluA2, GluA3, and GluA4 for AMPAR, and GluN1, GluN2A, GluN2B, and GluN2C for NMDAR was performed by qRT-PCR. […] Based on the mRNA amount of each subunit, the ratio of GluA2 to other GluA subunits (FIG. 2B) was determined. The ratio was defined as a Ca^2+ permeability index.

Aβ = Aβ accumulation in hippocampus and cerebral cortex of NL-G-F(−/−) mice; details: perampanel 5 mg/kg from 6 to 15 weeks of age
Description: The effect of perampanel administration on Aβ accumulation in the hippocampal dentate gyrus (DG) CA1 and the cerebral cortex (Cx) in the Alzheimer's dementia model mouse (NL-G-F(−/−)) is shown. The X axis indicates the intensity of fluorescence, and the Y axis indicates the fluorescence count.

[2] = Body weight monitoring of obese mice
Description: Male C57BL/6J background and ob/ob mice were obtained from CLEA Japan Inc. and Japan SLC, respectively (3). The reason why male mice were selected is that it has been reported that male mice are susceptible to HFD, such as weight gain, metabolic changes, and disorder of learning and hippocampal synaptic plasticity. These animals were housed 3 to 4 per cage in a standard 12 hour dark-light cycle room at 25° C. in an environment with freely available food and water. All animal experiments were performed in accordance with the guidelines of the Animal Experiment Ethics Committee of the University of the Ryukyus. Time series changes in average food intake and average body weight were monitored in each condition.
HFD mice were orally administered with HydroGel (Clear HO, Portland, ME 04101, USA) at a dose of 5 mg/kg body weight (HFD treated group with PER). For ob/ob mice, CE-2 feed (CLEA Japan, Inc., Tokyo) was used. HFD mice and ob/ob mice were orally administered one per cage with PER at a dose of 5 mg/kg body weight (HFD mice and ob/ob mice PER-administered group), and body weight and HydroGel intake were monitored twice a week for both groups to adjust the dose of PER to 5 mg/kg body weight.
Post-weaning (6 weeks) food intake and body weight of mice maintained on control diet (CD), high-fat diet (HFD), or HFD containing PER (Fycompa (trademark), Eisai, Japan) (5 mg/kg/day) was monitored up to 18 w (FIGS. 2, E and F). […] To determine the effect of HFD on cognitive behaviors, the open field test (FIG. 9, AC), elevated plus maze test (FIG. 9, DE), the contextual fear conditioning test (FIG. 9, F), the novel object recognition test (FIG. 2G), and a five-trial social interaction test (FIG. 2H) were performed. […]
Mice were then split into an HFD-fed group (n=5) and a PER-containing HFD-fed group (n=5) under the condition of the same feeding amount (refer to lower Panel of FIG. 25) and their body weights monitored.

[3] = HFD-fed mice with PER, ratio GluA2 mRNA/(GluA1+GluA3+GluA4 mRNA), N = 5

N#Cc1ccccc1-c1cc(-c2ccccn2)cn(-c2ccccc2)c1=O [PER, 3-(2-cyanophenyl)-5-(2-pyridyl)-1-phenyl-1,2-dihydropyridine-2-one]
Ca2+-permeability index CA1 [1, 3]: 0.29 ± 0.11
Ca2+-permeability index CA3 [1, 3]: 0.26 ± 0.10
Ca2+-permeability index DG [1, 3]: 0.22 ± 0.06
Ca2+-permeability index EC [1, 3]: 0.30 ± 0.05
Ca2+ permeability index via CA1, CA3, DG and EC ([1]; HFD-fed mice, PER administration, N=5): returned to CD-fed mouse levels
GluA2 mRNA expression in CA1 ([1]; mice fed HFD with PER, qRT-PCR, p<0.05): significant increase
Aβ accumulation in DG, CA1 and cerebral cortex (Aβ): decrease in Aβ accumulation
body weight ([2]; HFD containing PER 5 mg/kg/day from 6 weeks to 18 w, started from 16 w compared to HFD): significant inhibition
body weight under the same feeding amount ([2]; PER-containing HFD-fed group (n=5) vs HFD-fed group (n=5)): significant body weight loss
appearance and body weight ([2]; ob/ob mice, perampanel-containing diet 5 mg/kg body weight from 8 to 12 weeks of age): overweight was prevented
